The values that follow come from patent US5246957A, “N-imidazolyl derivatives of substituted indole” (Farmitalia Carlo Erba S.r.l., priority 1991, dated 1993).

In one assay the test system is TxB2 synthesis. As to the kind of experiment: TxB2 Synthesis Inhibition in vitro, in whole blood of normal rats. The class given is cell-based, Sprague Dawley rats. The following applies: Rattus norvegicus, read-out: In vitro effect on TxB2 synthesis in normal rats, IC50 (whole blood). Here is the method:
(§1) The effects of a representative group of compounds of the invention were evaluated, in comparison with known compounds, on TxB2 synthesis inhibition in vitro, in whole blood of normal rats, and on TxA2 antagonism in a binding assay in washed human platelets.
TxB2 Synthesis Inhibition
Blood was withdrawn from the abdominal aorta of normal Sprague Dawley rats (Charles River Italy) under light ether anaestesia. The blood was immediately divided in portions of 0.5 ml and distributed in glass tubes each containing a concentration of the test compound, or of the reference compounds.
Samples were then allowed to clot for 1 hour at 37° C., centrifuged at 3000 rpm for 10 min, and serum collected and stored at -20° C. until assayed.

In another assay the target is T1, TxA2 receptor (Homo sapiens, UniProt P21731).
T1 construct: endogenous in cells; host or cells: washed platelets from blood of healthy human volunteers
T1 sequence (P21731 1-343): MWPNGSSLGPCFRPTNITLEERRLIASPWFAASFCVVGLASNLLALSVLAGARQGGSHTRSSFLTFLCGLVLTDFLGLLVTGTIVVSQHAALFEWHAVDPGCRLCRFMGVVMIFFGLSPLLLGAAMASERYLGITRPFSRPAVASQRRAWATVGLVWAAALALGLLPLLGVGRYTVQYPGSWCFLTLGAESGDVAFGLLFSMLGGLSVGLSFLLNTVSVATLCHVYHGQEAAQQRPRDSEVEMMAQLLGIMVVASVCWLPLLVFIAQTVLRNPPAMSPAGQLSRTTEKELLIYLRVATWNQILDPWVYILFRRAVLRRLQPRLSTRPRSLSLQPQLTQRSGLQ
As to the kind of experiment: Displacement of [^3 H]-SQ 29,548 Binding to Washed Human Platelets. The note with it: for affinity for the receptor compared with reference standards: versus BM 13505 and BM 13177; for pIC50: washed human platelets, [^3 H]-SQ 29,548 5 nM, 30 min at 25° C., pH 7.4, n = 3, read-out: ^3 H SQ 29548 binding displacement (washed human platelet) IC50. Here is the method:
as §1
Displacement of [^3 H]-SQ 29,548 Binding to Washed Human Platelets
Blood from healthy volunteers of both sexes who had not taken any medication for at least 10 days was collected into one-tenth volume of acid citrate dextrose containing indomethacin (28 μM). Platelet rich plasma (PRP), obtained by centrifugation of the blood at 200× g for 20 min, was washed twice (1000× g for 10 min). The platelets were then resuspended in Tyrode-Hepes buffer (pH 7.4) to a final concentration of […] and incubated for 0-60 min at 25° with [^3 H]-SQ 29,548 (5 nM). For displacement experiments various concentrations (10^-9 -10^-4 M) of competing ligands were added and incubated for 30 min at 25° C. […] After the incubation, 4 ml of ice-cold TRIS-HCl buffer ( 10 mM, pH 7.4) was added to each tube and the reaction mixture was immediately filtered by suction through a Whatman GF/C glass filter disc which was washed 2 times with ice-cold TRIS-HCl (4 ml) and counted for radioactivity by a Packard β-counter.
The binding data were analysed by computerized non-linear curve fitting using the Ligand program and expressed as IC50.

The mark [1] stands for this setting: whole blood of normal rats, clotted 1 hour at 37° C., TxB2 by RIA.

pIC50: −log10 of the molar value. Read-outs that look alike come from different tables or passages of the source.

Consider `O=C(O)c1ccc(OCCn2ccnc2)cc1` [Dazoxiben, dazoxiben], for which, in the assay with TxB2 synthesis (setting [1]), the negative logarithm of the IC50 (pIC50) (usually the IC50 on a negative log10 scale, so that one unit is a factor of ten) was 5.92.
Turning to `Cc1c(CCC(=O)O)n(Cc2ccc(-n3ccnc3)cc2)c2ccc(F)cc12` [FCE 27005, 5-Fluoro-1-[[4-(1H-imidazol-1-yl)phenyl]methyl]-3-methyl-1H-indole-2-propanoic acid], on TxA2 receptor, the “affinity for the receptor compared with reference standards” value is “affinity for the receptor greater than those of compounds BM 13505 and BM 13177”; the pIC50 is 7.48.
In the case of `CC(=O)Oc1ccccc1C(=O)O` [ASA, acetylsalicilic acid], the pIC50 in the assay with TxB2 synthesis (1 h) was 4.51.
With `Cc1c(CCCC(=O)O)n(Cc2ccc(-n3ccnc3)cc2)c2ccc(F)cc12` [FCE 27093, 5-Fluoro-1-[[4-(1H-imidazol-1-yl)phenyl]methyl]-3-methyl-1H-indole-2-butanoic acid], the pIC50 in the assay with TxB2 synthesis (setting [1]) is 5.92. Besides, on TxA2 receptor, the “affinity for the receptor compared with reference standards” value was “affinity for the receptor greater than those of compounds BM 13505 and BM 13177”; the pIC50 is 7.92.
